Source: article PMC5045383 (Oncotarget, 2016)

Columns and labels:
[1] = system: MV4-11 cells; experiment: Apoptosis effect examination (PARP, Caspase-3 immunoblot); type: cell-based, human; conditions: MV4-11, 24 hours; more significantly at 1 μM
Source text: (§1) Cells were then washed in PBS and lysed in cell lysis buffer. PARP, Caspase-3, GAPDH antibodies (Cell signaling Technology) were used for immunoblotting.

[2] = system: MOLM14 cells; experiment: as above; type: cell-based, human; conditions: MOLM14, 24 hours; more pronounced at 3 μM
Source text: as §1

[3] = system: MOLM-14 xenograft tumor; experiment: MOLM-14 xenograft tumor model; type: in vivo, Balb/c-nu mice; conditions: daily oral gavage, MOLM14 xenograft
Source text: Five weeks old female Balb/c-nu mice were purchased from the Shanghai Experimental Center, Chinese Science Academy (Shanghai, China). All animals were housed in a specific pathogen-free facility and used according to the animal care regulations of Hefei Institutes of Physical Science Chinese Academy of Sciences. Prior to implantation, cells were harvested during exponential growth. 10 million MOLM-14 cells in 1640 were formulated as a 1:1 mixture with Matrigel (BD Biosciences) and injected into the subcutaneous space on the right flank of Balb/c-nu mice. Daily oral administration was initiated when MOLM-14 tumors had reached a size of 200 to 400 mm^3. Animals were then randomized into treatment groups of 10 mice each for efficacy studies. […] Tumor growth was measured daily after A674563 treatment. Tumor volumes were calculated as follows: tumor volume (mm^3) = [(W^2 × L)/2] in which width (W) is defined as the smaller of the two measurements and length (L) is defined as the larger of the two measurements.

[4] = system: OCI-AML-3 (FLT3-wt); experiment: Cell proliferation assay (CellTiter-Glo); type: cell-based, human; conditions: 72 hours
Method: (§2) The human AML cell lines MV4-11, U937, OCI-AML-3 were purchased from the American Type Culture Collection (ATCC) (Manassas, VA, USA). The FLT3-ITD-expressing lines, MOLM-13, MOLM-14, were provided by Dr. Scott Armstrong, Dana Farber Cancer Institute (DFCI), Boston, MA. The wt FLT3-expressing AML line, NB4 (KRAS A18D), was obtained from Dr. Gary Gilliland. […] MV4-11 was cultured in IDMEM media (Corning, USA) with 10% FBS and supplemented with 2% L-glutamine and 1% penicillin/streptomycin. OCI-AML-3 was cultured in α-MEM media (Corning, USA) with 10% FBS and supplemented with 2% L-glutamine and 1% penicillin/streptomycin. All cell lines were maintained in culture media at 37°C with 5% CO2.
(§3) Cells were grown in 96-well culture plates (3000/well). […] Cell proliferation was determined after 72 hours drug treatment. […] Cell viability was measured with the CellTiter–Glo assay (Promega, USA), according to the manufacturer's instructions, and luminescence was measured in a multi-label reader (Envision, PerkinElmer, USA). […] GI50 values were calculated using Prism 5.0 (GraphPad Software, San Diego, CA).

[5] = system: NB4 (FLT3-wt); experiment: Cell proliferation assay (CellTiter-Glo); type: cell-based, human; conditions: 72 hours
Method: as §2, §3

[6] = system: U937 (FLT3-wt); experiment: Cell proliferation assay (CellTiter-Glo); type: cell-based, human; conditions: 72 hours
Method: as §2, §3

[7] = system: MOLM-14 (FLT3-ITD/wt); experiment: Cell proliferation assay (CellTiter-Glo); type: cell-based, human
Method: as §2, §3

[8] = system: MOLM-13 (FLT3-ITD/wt); experiment: Cell proliferation assay (CellTiter-Glo); type: cell-based, human
Method: as §2, §3

[9] = system: MV4-11 (FLT3-ITD); experiment: Cell proliferation assay (CellTiter-Glo); type: cell-based, human
Method: as §2, §3

[10] = system: FLT3-ITD-positive AML patient primary cells; experiment: Anti-proliferation, AML patient primary cells; type: cell-based, human; conditions: at 1 μM; compared to normal bone marrow cells
Method: Mononuclear cells were isolated from samples from AML patients identified as harboring mutant FLT3. Cells were tested in liquid culture (DMEM, supplemented with 20% FBS) in the presence of different concentrations of inhibitors. All blood and bone marrow samples from AML patients were obtained under approval of the Dana Farber Cancer Institute Institutional Review Board. The ethics committees approved the consent procedure. All studies were performed with ACUC approved protocols at DFCI.

[11] = system: PF-382 (FLT3-wt); experiment: cells; type: cell-based; conditions: 72 hours
Method: as §3

[12] = molecular target: FLT3 wt; parameters: method as in PMID 22037378; conditions: cited from earlier work

GI50 [4]: 670 nM
GI50 [6]: 520 nM
GI50 ([7]; MOLM-14 (FLT3-ITD/wt), 72 hours, Table 1): 180 nM
GI50 ([7]; MOLM-14+FL(1 ng/mL)): 210 nM
GI50 ([7]; MOLM-14+FL(5 ng/mL)): 190 nM
GI50 ([7]; MOLM-14+FL(10 ng/mL)): 180 nM
GI50 ([7]; MOLM-14, no FLT3 ligand, Table 3): 180 nM
GI50 ([8]; MOLM-13 (FLT3-ITD/wt), 72 hours, Table 1): 60 nM
GI50 ([8]; MOLM-13+FL(1 ng/mL)): 61 nM
GI50 ([8]; MOLM-13+FL(5 ng/mL)): 58 nM
GI50 ([8]; MOLM-13+FL(10 ng/mL)): 59 nM
GI50 ([8]; MOLM-13, no FLT3 ligand, Table 3): 60 nM
GI50 ([9]; MV4-11 (FLT3-ITD), 72 hours, Table 1): 75 nM
GI50 ([9]; MV4-11+FL(10 ng/mL)): 78 nM
GI50 ([9]; MV4-11, no FLT3 ligand, Table 3): 75 nM
Compound: Cc1[nH]nc2ccc(-c3cncc(OC[C@@H](N)Cc4ccccc4)c3)cc12 [A674563]
concentration at which apoptosis was induced [1]: 0.3 µM
concentration at which induction of apoptosis was evident [2]: 1 µM
tumor growth inhibition (TGI) ([3]; 25 mg/kg/d): 45%
tumor growth inhibition (TGI) ([3]; 50 mg/kg/day): 78%
GI50 [5]: 480 nM
anti-proliferation activity in patient primary cells [10]: potent anti-proliferation activity
GI50 [11]: 2700 nM
Kd [12]: 540 nM
